Data taken from patent publication US7410993B2, “3,6-disubstituted azabicyclo [3.1.0] hexane deriviatives useful as muscarinic receptor antagonists” (Ranbaxy Laboratories Limited, priority 2002, dated 2008).

target: T1, M2 muscarinic receptor (Rattus norvegicus, UniProt P10980); test: Radioligand binding assay, [3H]-N-methylscopolamine, rat heart membranes; settings: [3H]NMS binding
T1 construct: Submandibular glands and heart were isolated and placed in ice cold homogenizing buffer; from tissue; host or cells: rat heart membrane homogenate
T1 sequence (P10980 1-466): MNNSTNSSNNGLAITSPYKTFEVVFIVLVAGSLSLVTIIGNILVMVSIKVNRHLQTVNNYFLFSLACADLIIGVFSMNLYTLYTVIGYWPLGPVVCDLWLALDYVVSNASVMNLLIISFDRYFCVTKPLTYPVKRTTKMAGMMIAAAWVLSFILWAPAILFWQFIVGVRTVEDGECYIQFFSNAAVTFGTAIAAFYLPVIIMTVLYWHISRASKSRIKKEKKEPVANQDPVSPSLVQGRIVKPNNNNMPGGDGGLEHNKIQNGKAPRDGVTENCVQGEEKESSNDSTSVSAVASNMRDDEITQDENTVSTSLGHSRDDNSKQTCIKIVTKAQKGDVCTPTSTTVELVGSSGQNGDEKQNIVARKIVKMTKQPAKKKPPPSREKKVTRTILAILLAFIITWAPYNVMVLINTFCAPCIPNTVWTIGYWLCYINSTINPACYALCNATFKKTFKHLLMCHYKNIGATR

Question: `Cc1ccc(OCc2ccccc2)c(C(CCN2CC3(C)CC3(C)C2)c2ccccc2)c1` (stereo not drawn) [Compound No. 3, 1-(1,5-dimethyl-3-azabicyclo[3.1.0]hex-3-yl)-3-(2-benzyloxy-5-methylphenyl)-3-phenyl propane] was tested. Which Ki did it give?
Answer: > 10000 nM

Question: With `Cc1ccc(O)c(C(CCN2CC3CC3C2)c2ccccc2)c1` (stereo not drawn) [Compound No. 2, 1-(3-azabicyclo[3.1.0]hex-3-yl)-3-(2-hydroxy-5-methylphenyl)-3-phenyl propane] as the molecule, how does the Ki read?
Answer: 105 nM

Question: `Cc1ccc(O)c(C(CCN2CC3CC3(C)C2)c2ccccc2)c1` (stereo not drawn) [Compound No. 6, 1-(1-methyl-3-azabicyclo[3.1.0]hex-3-yl)-3-(2-hydroxy-5-methylphenyl)-3-phenyl propane] was tested. Which Ki did it give?
Answer: 221 nM

Question: How did the Ki turn out when `Cc1ccc(O)c(C(CCN2CC3(C)CC3(C)C2)c2ccccc2)c1` (stereo not drawn) [Compound No. 4, 1-(1,5-dimethyl-3-azabicyclo[3.1.0]hex-3-yl)-3-(2-hydroxy-5-methylphenyl)-3-phenyl propane] was run?
Answer: > 1000 nM

Question: Which Ki does the source give for `Cc1ccc(O)c(C(CCN2CC3CC3C2C)c2ccccc2)c1` (single isomer, unassigned) [Compound No. 9, 1-(2-methyl-3-azabicyclo[3.1.0]hex-3-yl)-3-(2-hydroxy-5-methylphenyl)-3-phenyl propane] here?
Answer: 42 nM

Question: `Cc1ccc(O)c(C(CCN2CC3CC3C2C)c2ccccc2)c1` (single isomer, unassigned) [Compound No. 8, 1-(2-methyl-3-azabicyclo[3.1.0]hex-3-yl)-3-(2-hydroxy-5-methylphenyl)-3-phenyl propane] was tested. Which Ki did it give?
Answer: 34 nM
